The target of data set [1] is T1, A1 adenosine receptor (Rattus norvegicus, UniProt P25099).
T1 sequence (P25099 1-326): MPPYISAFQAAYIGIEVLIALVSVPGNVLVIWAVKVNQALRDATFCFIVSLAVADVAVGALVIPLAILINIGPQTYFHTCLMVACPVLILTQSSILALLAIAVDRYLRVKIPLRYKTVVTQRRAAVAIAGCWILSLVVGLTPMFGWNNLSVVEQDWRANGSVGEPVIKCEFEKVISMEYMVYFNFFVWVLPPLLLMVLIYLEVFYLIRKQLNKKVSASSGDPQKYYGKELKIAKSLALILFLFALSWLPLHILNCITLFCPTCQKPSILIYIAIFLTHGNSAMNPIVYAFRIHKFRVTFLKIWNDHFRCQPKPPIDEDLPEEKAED
Conditions: Table 1, literature values, cited from earlier work.

Data set [2] deals with A2A adenosine receptor (Rattus norvegicus, UniProt P30543). Conditions: Table 1, literature values; cited from earlier work.
Data set [3] addresses T2, human A1-adenosine receptor (Homo sapiens, UniProt P30542).
T2 construct: expressed in transfected cells; host or cells: CHO cells
T2 sequence (P30542 1-326): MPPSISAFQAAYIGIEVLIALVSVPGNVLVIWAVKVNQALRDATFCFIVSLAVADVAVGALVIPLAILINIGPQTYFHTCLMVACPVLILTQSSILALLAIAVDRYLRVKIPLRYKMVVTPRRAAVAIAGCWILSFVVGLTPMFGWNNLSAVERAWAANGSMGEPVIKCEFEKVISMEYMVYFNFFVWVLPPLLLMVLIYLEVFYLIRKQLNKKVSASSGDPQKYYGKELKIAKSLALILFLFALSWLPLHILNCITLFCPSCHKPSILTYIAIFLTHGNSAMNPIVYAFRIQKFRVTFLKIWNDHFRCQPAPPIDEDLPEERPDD
The data set can be described thus: Radioligand binding with [3H]CCPA on recombinant human A1-adenosine receptors expressed by CHO cells. Conditions: read-out: A1 K1, Human. The text has this:
The following selective radioligands are used in the biological tests: • [^3H]CCPA (for A1 ARs) [Klotz et al., Naunyn-Schmiedeberg's Arch. Pharmacol., 340, 679 (1989)] • [^3]MSX-2 (for A2A ARs) [Muiller et al., Eur. J. Pharm. Sci., 10, 259 (2000)] • [^3H]ZM241385 (for A2B ARs_[X.-D. Ji, K. A. Jacobson, Drug Des. Discov., 16, 217 (1999)] • [^3H]PSB-11 (new antagonistic radioligand for human A3 ARs) [M. Dieckmann, M. Thorand, V. Ozola, C. E. Muiller, in Vorbereitung [Preparation] (2001)]. • [^125I]AB-MECA (for rat-A3 ARs) [Olah et al., Mol. Pharmacol., 45, 978 (1994)]. Description of the Assays That are Used for Testing Substances Production of Tissue Preparations Made from Rat Brains
As cell cultures, for example, CHO cells, which express the human A1-adenosine receptor, are used.
The nutrient medium, trypsine and PBS (phosphate-buffered common salt solution) are heated in a water bath to 37° C. The medium is suctioned off from the flask that is approximately 80% to 90% confluently covered with CHO cells. […]
The mixture is incubated for 90 minutes in an oscillating water bath at 23° C. […] The filter plates are conveyed in scintillation vials, doused with 2.5 ml of Ultima Gold Scintillation cocktail and incubated for at least 6 hours before they are measured in a scintillation counter.
The mean value is calculated from three independent experiments. […]

The melting point is the temperature of the solid-liquid transition.

Where only a bound is given, the exact number is not on record here.

For the molecule `Clc1cc(-c2nc3ccccc3n3cnnc23)[nH]n1` [Y = C—H, R5 = H, R6 = Cl], in data set [1] (10 μmol), the “A1 % Inhibition @ 10 μmol” value is “(35%)”. Besides, the Ki in data set [1] (read-out: A1 K1) is more than 10000 nM. Further, in data set [2], the “A2A % Inhibition @ 25 μmol” value is “(21%)”.

Turning to `Cn1nc(-c2nc3ccccc3n3c(Cc4cccs4)nnc23)cc1Cl` [Y = C—CH2-(2-Thienyl), R5 = CH3, R6 = Cl, 4-(5-Chloro-1H-1-methyl-pyrazol-3-yl)-1-(2-thienylmethyl)-[1,2,4]triazolo[4,3-a]-quinoxaline], the melting point is 205 to 207 °C.

“4-(chloropyrazolyl)-1-(3-phenylpropyl)-[1,2,4-]triazolo[4,3-a]quinoxaline [Y = C—CH2—CH2—CH2-Ph, R5 = H, R6 = Cl]”: in data set [3], the Ki was determined as 2 nM.
